Measurements reported in patent US20220304958A1, “SMALL MOLECULE INHIBITORS OF A PROTEIN COMPLEX” (THE REGENTS OF THE UNIVERSITY OF CALIFORNIA, priority 2019, published 2022).
pIC50: −log10 of the molar value. Peptide text beside a SMILES is read from it.

Molecular target: T1, HEG1-KRIT1 interaction (Homo sapiens, UniProt O00522)
T1 construct: His6-EGFP-KRIT1 (WT) FERM domain (417-736) and KRIT1 (L717,721A) mutant were cloned into pETM-11; His6 (N); made in house; host or cells: E. coli BL21 Star (DE3)
Experiment: Flow cytometry assay for the HEG1-KRIT1 FERM domain interaction (competition binding on HEG1 matrix beads)
Settings: Table 2; flow cytometry-screening assay; NI = no inhibition detected up to 500 μM
Description: Bead Coupling. SPHERO Neutravidin Polystyrene Particles, […] (Spherotech) were washed twice with wash buffer (20 mM Tris, 150 mM NaCl. pH 7.4 containing 0.01% NP-40, and 1 mM EDTA). Prior to incubation with biotin-tagged HEG 1 cytoplasmic tail protein, an appropriate volume of bead slurry was passivated to inhibit non-specific binding by incubation for 30 minutes at room temperature in reaction buffer containing 0.1% BSA (20 mM Tris, 150 mM NaCl, pH 7.4 0.01% NP-40, 1 mM EDTA, 1 mM DTT, and 0.1% BSA). Passivated beads were collected by centrifugation, resuspended to 3,600 particles/μl in reaction buffer and biotinylated HEG1 tail was added to a final concentration of 150 nM and incubated overnight on a rotator at 4° C. The beads were washed three times by centrifugation with ice-cold reaction buffer to remove unbound HEG1 peptide. Beads were diluted such that a final concentration of 2000 beads/μL were available for addition to assay plates.
Flow cytometry assay. A final volume of 100 μl containing 140 nM EGFP-KRIT1 FERM domain, with 10% DMSO or 10% compounds in DMSO, was incubated for 15 minutes at room temperature on a rotator. 100 μl of beads were added to the mixture for a final volume of 200 μl at 1,000 particles/μl with 70 nM EGFP-KRIT1 and incubated for 15 minutes at room temperature on a rotator. The control beads were: without KRIT1 (minimum signal); with KRIT1 (maximum signal); and with KRIT1 plus 2 μM HEG1 7-mer (positive blocking control). The EGFP fluorescence was measured using a BD Accuri flow cytometer. For screening purposes, the final volume of the reaction was scaled down to 10 μl and samples were processed as previously described (27). For FIGS. 1D-1F, 2B, and 3E, a representative experiment is shown of at the least 3 independent repeats.
Assay plate assembly. Plate assays were performed in 384-well microtiter plates (Greiner Bio-one, #784101). Reaction buffer. HEG1-coupled beads, and EGFP-KRIT-FERM constructs were added using a MultiFlo™ Microplate Dispenser (BioTek Instruments, Inc.). Compounds were added to single-point assay plates pre-loaded with reaction buffer using a Biomek^NX liquid handler (BeckmanCoulter) equipped with a […] pintool (V & P Scientific, Inc.). Compound libraries were dispensed to a final concentration of 10 μM. An equal volume (10 nL) of DMSO was added to the vehicle control wells. Following the addition of library compounds, 5 μL of assay buffer was added and the plates were mixed before addition of 5 μL of the protein-coupled bead mixtures; Plates were protected from light and incubated on a rotator for 15 minutes at room temperature. Binding of EGFP-KRIT to HEG1 coupled beads was evaluated using an Accuri C6 flow cytometer.
Data Acquisition. Assay plates were sampled using the HyperCyt™ high throughput flow cytometry platform (Intellicyt; Albuquerque, N. Mex.). During sampling, the probe moves from well to well and samples 1-2 μL from each well pausing 0.4 sec in the air before sampling the next well. The resulting sample stream consisting of 384 separated samples is delivered to an Accuri C6 flow cytometer (BD Biosciences; San Jose, Calif.). Plate data are acquired as time-resolved files that are parsed by software-based well identification algorithms and merged with compound library files. Plate performance was validated using the Z-prime calculation (28).
Compounds that satisfied hit selection criteria in the primary screen were cherry-picked from compound storage plates and tested to confirm activity and determine potency. Dose response data points were fitted by Prism software (GraphPad Software Inc., San Diego, Calif.) using nonlinear least-squares regression in a sigmoidal dose-response model with variable slope, also known as the 4-parameter logistic equation.

T1 sequence (O00522 417-736): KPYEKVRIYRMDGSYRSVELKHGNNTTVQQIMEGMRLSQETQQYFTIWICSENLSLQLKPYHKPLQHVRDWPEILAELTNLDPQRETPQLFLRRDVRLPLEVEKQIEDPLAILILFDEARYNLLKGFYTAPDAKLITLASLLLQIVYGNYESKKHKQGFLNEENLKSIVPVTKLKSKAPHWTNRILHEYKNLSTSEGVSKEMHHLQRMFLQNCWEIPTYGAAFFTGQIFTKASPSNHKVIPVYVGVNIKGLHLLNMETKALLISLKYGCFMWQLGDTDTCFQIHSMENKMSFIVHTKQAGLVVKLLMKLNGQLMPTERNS

IC50 (μM) | Structure (SMILES)
precipitation | COC(=O)c1ccccc1NC(=O)c1c(O)ccc2ccccc12 [BL-0589, methyl 2-(2-hydroxy-1-naphthamido)benzoate]
precipitation | Oc1ccc2ccccc2c1/C=N/c1ncn[nH]1 [BL-0550, (E)-1-(((1H-1,2,4-triazol-5-yl)imino)methy)naphthalen-2-ol]
precipitation | Oc1ccc2ccccc2c1/C=N/c1cccnc1 [BL-0551, (E)-1-((pyridin-3-ylimino)methyl)naphthalen-2-ol]

Same assay, conditions: Table 2; flow cytometry-screening assay; NI = no inhibition detected up to 500 μM; read-out: IC50

pIC50 | Structure (SMILES)
5.59 | CN(C)c1ccc2c(C=O)c(O)ccc2c1 [BL-0737, 6-(Dimethylamino)-2-hydroxy-1-naphthaldehyde]
< 3.30 | OC1(c2cccc3ccccc23)COC1 [BL-0695, 3-(naphthalen-1-yl)oxetan-3-ol]
5.49 | O=Cc1c(O)ccc2cc(Cl)ccc12 [BL-702 (Hki10), 6-chloro-2-hydroxy-1-naphthaldehyde]
4.23 | CC(=O)c1ccc2c(C=O)c(O)ccc2c1 [BL-0700 (HKi9), 6-acetyl-2-hydroxy-1-naphthaldehyde]
5.52 | O=Cc1c(O)ccc2cc(-c3ccccc3)ccc12 [BL-0818, 2-Hydraxy-6-phenyl-1-naphthaldehyde]
< 3.30 | C[S+]([O-])c1c(O)ccc2ccccc12 (centres unmarked) [BL-705, 1-(Methylsulfinyl)naphthalen-2-ol]
5.40 | C#Cc1ccc2c(C=O)c(O)ccc2c1 [BL-0742, 6-Ethynyl-2-hydroxy-1-naphthaldehyde]
5.29 | Cc1ccc2c(C=O)c(O)ccc2c1 [BL-0666 (HKi8), 2-hydroxy-6-methyl-1-naphthaldehyde]
4.54 | O=Cc1c(O)ccc2cc(N3CCCCC3)ccc12 [BL-0736, 2-Hydroxy-6-(piperidin-1-yl)-1-naphthaldehyde]
< 3.30 | c1ccc2c(c1)ccc1oncc12 [BL-0593, naphtho[1,2-d]isoxazole]
< 3.30 | CS(=O)(=O)c1c(O)ccc2ccccc12 [BL-704, 1-(Methylsulfonyl)naphthalen-2-ol]
< 3.30 | Oc1ccc2ccccc2c1C(O)C(F)(F)F (centres unmarked) [BL-706, 1-(2,2,2-Trifluoro-1-hydroxyethyl)naphthalen-2-ol]
5.34 | CCOc1ccc2c(C=O)c(O)ccc2c1 [BL-0794, 6-Ethoxy-2-hydroxy-1-naphthaldehyde]
5.49 | Oc1ccc2ccccc2c1/C=N/c1nn[nH]n1 [BL-0549, (E)-1-(((1H-tetrazol-5-yl)imino)methyl)naphthalen-2-ol]
5.41 | CCc1ccc2c(C=O)c(O)ccc2c1 [BL-0740, 6-Ethyl-2-hydroxy-1-naphthaldehyde]
5.96 | C=CCc1ccc2c(C=O)c(O)ccc2c1 [BL-0739, 6-Allyl-2-hydroxy-1-naphthaldehyde]
< 3.30 | O=C(O)c1ccccc1CCc1c(O)ccc2ccccc12 [BL-0606, 2-(2-(2-hydroxynaphthalen-1-yl)ethyl)benzoic acid]
4.82 | CC#Cc1ccc2c(C=O)c(O)ccc2c1 [BL-0817, 2-Hydroxy-6-(prop-1-yn-1-yl)-1-naphthaldehyde]
< 3.30 | O=Cc1nccc2ccccc12 [BL-0607, Isoquinoline-1-carbaldehyde]
4.10 | CCCCc1ccc2c(C=O)c(O)ccc2c1 [BL-0743, 6-Butyl-2-hydroxy-1-naphthaldehyde]
< 3.30 | CC(NC(=O)c1ccccc1N)c1ccccc1 (centres unmarked) [Compound 4, 2-amino-N-(1-phenylethyl)benzamide]
5.54 | O=C(O)c1ccccc1/N=C/c1c(O)ccc2ccccc12 [BL-0547 (Hki3), (E)-2-(((2-hydroxynaphthalen-1-yl)methylene)amino)benzoic acid]

pIC50 | Structure (SMILES)
4.49 | Oc1ccc2c(/C=N/c3ccccc3)c(O)ccc2c1 [BL-0661 (HKi7), 1-((phenylimino)methyl)naphthalene-2,6-diol]
4.74 | COc1cccc2ccc(O)c(C=O)c12 [BL-0691, 2-hydroxy-8-methoxy-1-naphthaldehyde]
4.10 | CCOC(=O)/C=C/c1ccc2c(C=O)c(O)ccc2c1 [BL-0744, Ethyl (E)-3-(5-formyl-6-hydroxynaphthalen-2-yl)acrylate]
5.49 | O=C(O)c1cccc(/N=C/c2c(O)ccc3ccccc23)c1 [BL-0558, (E)-3-(((2-hydroxynaphthalen-1-yl)methylene)amino)benzoic acid]
< 3.30 | OCC(CO)c1c(O)ccc2ccccc12 [BL-703, 2-(2-hydroxynaphthalen-1-yl)propane-1,3-diol]
5.74 | O=C(O)c1ccc(/N=C/c2c(O)ccc3ccccc23)cc1 [BL-0552, (E)-4-(((2-hydroxynaphthalen-1-yl)methylene)amino)benzoic acid]
< 3.30 | O=C(O)c1ccccc1NC(=O)c1c(O)ccc2ccccc12 [BL-0590, 2-(2-hydroxy-1-naphthamido)benzoic acid]
< 3.30 | O=C(O)c1ccccc1NCc1c(O)ccc2ccccc12 [BL-0588, 2-(((2-hydroxynaphthalen-1-yl)methyl)amino)benzoic acid]
4.50 | CC(O)c1ccc2c(C=O)c(O)ccc2c1 (centres unmarked) [BL-0745, 2-Hydroxy-6-(1-hydroxyethyl)-1-naphthaldehyde]
< 3.30 | CC(O)c1c(O)ccc2ccccc12 (centres unmarked) [BL-0713, 1-(1-hydroxyethyl)naphthalen-2-ol]
< 3.30 | O=C(O)c1ccccc1C#Cc1c(O)ccc2ccccc12 [BL-0604, 2-((2-hydroxynaphthalen-1-yl)ethynyl)benzoic acid]
< 3.30 | CSc1c(O)ccc2ccccc12 [BL-707, 1-(methylthio)naphthalen-2-ol]
4.35 | O=Cc1c(O)ccc2cccc(O)c12 [BL-0693, 2,8-dihydroxy-1-naphthaldehyde]
5.92 | O=Cc1c(O)ccc2cc(-c3cccs3)ccc12 [BL-0819, 2-Hydroxy-6-(thiophen-2-yl)-1-naphthaldehyde]
< 3.30 | ON=Cc1c(O)ccc2ccccc12 [BL-0591, 2-hydroxy-l-naphthaldehyde oxime]
< 3.30 | CC(N)c1ccccc1N (centres unmarked) [Compound 5, 2-(1-aminoethyl)aniline]
4.52 | O=Cc1c(O)ccc2cc(N3CCC3=O)ccc12 [BL-0738, 2-Hydroxy-6-(2-oxoazetidin-1-yl)-1-naphthaldehyde]
5.44 | N#Cc1ccc2c(C=O)c(O)ccc2c1 [BL-0788, 5-Formyl-6-hydroxy-2-naphthonitrile]
< 3.30 | O=Cc1ccccc1O [Compound 16, Salicylaldehyde]
< 3.30 | O=C(O)c1ccccc1/C=C/c1c(O)ccc2ccccc12 [BL-0605, (E)-2-(2-(2-hydroxynaphthalen-1-yl)vinyl)benzoic acid]
< 3.30 | NCc1c(O)ccc2ccccc12 [BL-0592, 1-(aminomethyl)naphthalen-2-ol]

Structure (SMILES) | pIC50
O=Cc1cc(-c2ccccc2)ccc1O [BL-0628 (HKi4), 4-Hydroxy-[1,1′-biphenyl]-3-carbaldehyde] | 4.66

Same assay, conditions: blocking of GFP-KRIT1 FERM domain binding to HEG1 matrix beads; read-out: IC50

Structure (SMILES) | pIC50
N=C(N)NCCC[C@H](NC(=O)[C@H](CCCNC(=N)N)NC(=O)[C@H](CCCNC(=N)N)NC(=O)[C@@H](N)CO)C(=O)N[C@@H](CC(=O)O)C(=O)N[C@@H](Cc1ccc(O)cc1)C(=O)N[C@@H](Cc1ccccc1)C(=O)O [HEG1 C-terminus 7-mer peptide, reference compound] (H-SRRRDYF-OH; N-terminus and C-terminus assumed) | 6.39

Same assay, conditions: inhibition of the HEG1-KRIT1 interaction, flow cytometry assay

IC50 | Structure (SMILES)
no inhibition | O=Cc1nccc2ccccc12 [BL-0607, Isoquinoline-1-carbaldehyde]
did not exhibit detectable activity | O=Cc1ccccc1O [Compound 16, Salicylaldehyde]
